{"source": "ChEMBL document CHEMBL4765394", "about": "“From irreversible to reversible covalent inhibitors: Harnessing the andrographolide scaffold for anti-inflammatory action” (Eur J Med Chem, 2020)", "key": {"[1]": {"experiment": "Aqueous stability of compound", "type": "physicochemical", "settings": "buffer"}, "RAW264.7 [2]": {"system": "RAW264.7", "experiment": "Antiinflammatory activity in mouse RAW264.7 cells assessed as inhibition of LPS-induced IL6 release at 5 to 10 uM preincubated for 1 hr followed by LPS stimulation and measured after 24 hrs by ELISA", "type": "functional, cell-based", "settings": "dose 5-10 µM, time 25.0 hrs"}, "RAW264.7 [3]": {"system": "RAW264.7", "experiment": "Cytotoxicity against mouse RAW264.7 cells assessed as reduction cell viability at 5 to 50 uM measured after 24 hrs by Celltiter-glo assay", "type": "cell-based", "settings": "raw264.7, 24 h, dose 5-50 µM"}, "RAW264.7 [4]": {"system": "RAW264.7", "experiment": "Antiinflammatory activity in mouse RAW264.7 cells assessed as inhibition of LPS-induced TNFalpha release at 5 to 10 uM preincubated for 1 hr followed by LPS stimulation and measured after 4 hrs by ELISA", "type": "functional, cell-based", "settings": "dose 5-10 µM, time 5.0 hrs"}, "RAW-Blue [5]": {"system": "RAW-Blue", "experiment": "Inhibition of LPS-induced NF-kappaB activity in mouse RAW-Blue cells assessed as reduction in SEAP reporter activity at 5 to 20 uM preincubated for 1 hr followed by LPS stimulation and measured after 8 hrs by SEAP reporter gene assay", "type": "cell-based", "settings": "dose 5-20 µM, time 9.0 hrs"}, "RAW-Blue [6]": {"system": "RAW-Blue", "experiment": "Inhibition of LPS-induced NF-kappaB activity in mouse RAW-Blue cells assessed as reduction in SEAP reporter activity at 5 to 20 uM preincubated for 1 hr followed by LPS stimulation and measured after 24 hrs by SEAP reporter gene assay", "type": "cell-based", "settings": "dose 5-20 µM, time 25.0 hrs"}, "RAW-Blue [7]": {"system": "RAW-Blue", "experiment": "Activation of NF-kappaB activity in mouse RAW-Blue cells assessed as increase in SEAP reporter activity at 5 to 20 uM measured after 24 hrs by SEAP reporter gene assay", "type": "cell-based", "settings": "dose 5-20 µM"}, "RAW-Blue [8]": {"system": "RAW-Blue", "experiment": "Activation of NF-kappaB activity in mouse RAW-Blue cells assessed as increase in SEAP reporter activity at 30 uM measured after 24 hrs in presence of p38 inhibitor SB203580 by SEAP reporter gene assay", "type": "cell-based"}, "[9]": {"experiment": "GSH reactivity in PBS assessed as isomerization measured up to 24 hrs by HPLC-MS analysis", "type": "ADME", "settings": "buffer"}, "[10]": {"experiment": "GSH reactivity in PBS assessed as GSH adduct formation measured up to 8 hrs by HPLC-MS analysis", "type": "ADME", "settings": "buffer"}, "[11]": {"experiment": "GSH reactivity in PBS assessed as GSH adduct formation by measuring half life by HPLC-MS analysis", "type": "ADME"}, "[12]": {"molecular_target": "RAC-alpha serine/threonine-protein kinase (Mus musculus) (UniProt P31750)", "sequence (P31750 whole entry)": "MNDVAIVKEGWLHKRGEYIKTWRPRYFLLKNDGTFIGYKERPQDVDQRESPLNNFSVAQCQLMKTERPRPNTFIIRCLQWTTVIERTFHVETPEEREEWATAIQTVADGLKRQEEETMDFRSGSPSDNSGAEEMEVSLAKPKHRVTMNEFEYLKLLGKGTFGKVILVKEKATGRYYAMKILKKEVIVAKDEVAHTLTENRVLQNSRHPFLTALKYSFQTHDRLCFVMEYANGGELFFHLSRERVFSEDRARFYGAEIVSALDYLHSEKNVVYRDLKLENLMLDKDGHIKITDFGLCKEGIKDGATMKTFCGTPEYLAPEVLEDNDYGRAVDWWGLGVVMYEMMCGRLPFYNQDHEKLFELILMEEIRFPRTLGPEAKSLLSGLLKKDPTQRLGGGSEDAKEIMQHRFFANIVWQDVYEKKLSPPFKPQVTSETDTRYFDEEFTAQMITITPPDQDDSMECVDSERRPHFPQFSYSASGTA", "experiment": "Inhibition of LPS-induced AKT activation in mouse RAW264.7 cells assessed as reduction in AKT phosphorylation measured after 4 hrs by Western blot analysis", "type": "cell-based"}, "[13]": {"experiment": "Effect on total AKT expression in LPS-induced mouse RAW264.7 cells at 5 to 20 uM measured after 4 hrs by Western blot analysis", "settings": "raw264.7, 4 h, dose 5-20 µM"}, "[14]": {"molecular_target": "T1, Mitogen-activated protein kinase 1 and 3 (ERK2 and ERK1) (Mus musculus) (UniProt P63085+Q63844)", "T1 sequence (P63085 whole entry, looked up)": "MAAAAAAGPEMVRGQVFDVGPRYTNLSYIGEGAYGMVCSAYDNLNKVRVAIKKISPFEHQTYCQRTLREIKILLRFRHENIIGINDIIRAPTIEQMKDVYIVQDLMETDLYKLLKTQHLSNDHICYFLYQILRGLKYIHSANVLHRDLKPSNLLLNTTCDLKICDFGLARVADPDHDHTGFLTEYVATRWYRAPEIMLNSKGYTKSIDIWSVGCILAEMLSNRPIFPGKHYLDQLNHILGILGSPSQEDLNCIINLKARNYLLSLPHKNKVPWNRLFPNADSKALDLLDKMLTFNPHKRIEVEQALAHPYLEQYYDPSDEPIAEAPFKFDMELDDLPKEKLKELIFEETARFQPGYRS", "T1 sequence (Q63844 whole entry, looked up)": "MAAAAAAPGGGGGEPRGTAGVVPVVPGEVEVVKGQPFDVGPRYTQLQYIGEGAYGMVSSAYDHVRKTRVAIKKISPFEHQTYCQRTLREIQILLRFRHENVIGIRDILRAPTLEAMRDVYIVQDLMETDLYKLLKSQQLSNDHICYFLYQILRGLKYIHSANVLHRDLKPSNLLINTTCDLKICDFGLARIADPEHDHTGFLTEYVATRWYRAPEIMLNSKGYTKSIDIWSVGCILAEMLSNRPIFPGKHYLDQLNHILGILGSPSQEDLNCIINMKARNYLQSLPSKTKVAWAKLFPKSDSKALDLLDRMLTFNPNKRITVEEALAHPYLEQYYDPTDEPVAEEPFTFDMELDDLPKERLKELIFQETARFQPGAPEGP", "experiment": "Inhibition of LPS-induced ERK1/2 activation in mouse RAW264.7 cells assessed as reduction in ERK1/2 phosphorylation at 20 uM measured after 4 hrs by Western blot analysis", "type": "cell-based"}, "[15]": {"molecular_target": "T2, Nuclear factor NF-kappa-B p105 subunit (Homo sapiens) (UniProt P19838)", "T2 sequence (whole entry)": "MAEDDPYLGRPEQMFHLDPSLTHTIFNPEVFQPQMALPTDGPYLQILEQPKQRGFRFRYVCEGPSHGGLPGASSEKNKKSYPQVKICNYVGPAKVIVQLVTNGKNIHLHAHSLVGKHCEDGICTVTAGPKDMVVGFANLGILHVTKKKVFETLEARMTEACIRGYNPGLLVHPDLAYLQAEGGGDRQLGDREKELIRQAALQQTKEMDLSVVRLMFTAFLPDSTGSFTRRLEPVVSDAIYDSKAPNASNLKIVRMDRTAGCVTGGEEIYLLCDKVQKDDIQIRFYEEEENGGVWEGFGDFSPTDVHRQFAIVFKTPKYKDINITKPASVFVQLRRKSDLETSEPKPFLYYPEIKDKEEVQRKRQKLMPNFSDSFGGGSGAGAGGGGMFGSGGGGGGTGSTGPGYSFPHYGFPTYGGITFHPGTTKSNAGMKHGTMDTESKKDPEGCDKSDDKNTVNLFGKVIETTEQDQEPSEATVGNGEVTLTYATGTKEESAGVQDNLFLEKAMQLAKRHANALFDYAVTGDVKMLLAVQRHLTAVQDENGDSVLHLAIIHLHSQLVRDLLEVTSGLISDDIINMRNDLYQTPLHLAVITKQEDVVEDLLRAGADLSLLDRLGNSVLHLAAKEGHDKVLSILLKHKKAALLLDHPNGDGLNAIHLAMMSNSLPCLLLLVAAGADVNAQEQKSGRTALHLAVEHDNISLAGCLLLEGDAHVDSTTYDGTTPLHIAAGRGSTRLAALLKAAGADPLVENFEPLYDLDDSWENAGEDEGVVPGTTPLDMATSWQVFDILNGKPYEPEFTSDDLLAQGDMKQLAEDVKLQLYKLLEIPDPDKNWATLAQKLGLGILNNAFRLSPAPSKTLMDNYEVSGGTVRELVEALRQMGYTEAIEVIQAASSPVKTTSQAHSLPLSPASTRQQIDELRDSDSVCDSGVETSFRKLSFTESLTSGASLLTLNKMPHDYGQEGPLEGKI", "experiment": "Inhibition of DNA binding activity of human NF-kappaB p50 measured after 1 hr by ELISA"}, "[16]": {"molecular_target": "T2, Nuclear factor NF-kappa-B p105 subunit (Homo sapiens)", "experiment": "Binding affinity to human NF-kappaB p50 assessed as compound-adduct formation by MALDI-TOF analysis"}, "[17]": {"experiment": "Cytotoxicity against human L02 cells assessed as reduction in cell viability measured after 24 hrs by Celltiter-glo assay", "type": "cell-based"}, "[18]": {"experiment": "Cytotoxicity against HEK293 cells assessed as reduction in cell viability measured after 24 hrs by Celltiter-glo assay", "type": "cell-based", "settings": "human"}, "Mus musculus [19]": {"system": "Mus musculus", "experiment": "Antiinflammatory activity in LPS-induced BALB/c mouse model of acute lung injury assessed as reduction in total cell count at 1 mg/kg, ip administered twice daily for 4 days starting 1 hr post LPS challenge by differential staining based flow cytometry relative to control", "type": "functional", "design": "scale not given: the % may be the effect or the level left", "settings": "time 4 day"}, "Mus musculus [20]": {"system": "Mus musculus", "experiment": "Antiinflammatory activity in LPS-induced BALB/c mouse model of acute lung injury assessed as reduction in neutrophil cell count at 1 mg/kg, ip administered twice daily for 4 days starting 1 hr post LPS challenge by differential staining based flow cytometry relative to control", "type": "functional", "design": "scale not given: the % may be the effect or the level left", "settings": "time 4 day"}, "Mus musculus [21]": {"system": "Mus musculus", "experiment": "Antiinflammatory activity in ip dosed LPS-induced BALB/c mouse model of acute lung injury assessed as reduction in total cell count administered twice daily for 4 days starting 1 hr post LPS challenge by differential staining based flow cytometry", "type": "functional, organism-based", "settings": "time 4.0 day"}, "Mus musculus [22]": {"system": "Mus musculus", "experiment": "Antiinflammatory activity in ip dosed LPS-induced BALB/c mouse model of acute lung injury assessed as reduction in neutrophil cell count administered twice daily for 4 days starting 1 hr post LPS challenge by differential staining based flow cytometry", "type": "functional, organism-based", "settings": "time 4.0 day"}, "RAW264.7 [23]": {"system": "RAW264.7", "experiment": "Activation of JNK phosphorylation in mouse RAW264.7 cells at 50 uM measured after 4 hrs by Western blot analysis", "type": "cell-based"}, "RAW264.7 [24]": {"system": "RAW264.7", "experiment": "Activation of JNK phosphorylation in BSO-treated mouse RAW264.7 cells at 50 uM measured after 4 hrs by Western blot analysis"}, "[25]": {"molecular_target": "T1, Mitogen-activated protein kinase 1 and 3 (ERK2 and ERK1) (Mus musculus)", "experiment": "Inhibition of LPS-induced ERK1/2 activation in BSO-treated mouse RAW264.7 cells assessed as reduction in ERK1/2 phosphorylation at 10 uM preincubated for 1 hr followed by LPS-stimulation measured after 4 hrs by Western blot analysis", "settings": "time 5.0 hrs"}, "[26]": {"molecular_target": "RAC-alpha serine/threonine-protein kinase (Mus musculus) (UniProt P31750)", "experiment": "Inhibition of LPS-induced AKT activation in BSO-treated mouse RAW264.7 cells assessed as reduction in AKT phosphorylation at 10 uM preincubated for 1 hr followed by LPS-stimulation measured after 4 hrs by Western blot analysis", "settings": "time 5.0 hrs"}, "RAW264.7 [27]": {"system": "RAW264.7", "experiment": "Antiinflammatory activity in 2 hrs NAC-pretreated mouse RAW264.7 cells assessed as inhibition of LPS-induced TNFalpha release at 10 uM preincubated for 1 hr followed by LPS stimulation and measured after 4 hrs by ELISA relative to control", "type": "functional", "settings": "time 5 hrs"}, "RAW264.7 [28]": {"system": "RAW264.7", "experiment": "Antiinflammatory activity in 4 hrs NAC-pretreated mouse RAW264.7 cells assessed as inhibition of LPS-induced TNFalpha release at 10 uM preincubated for 1 hr followed by LPS stimulation and measured after 4 hrs by ELISA relative to control", "type": "functional", "settings": "time 5 hrs"}, "RAW264.7 [29]": {"system": "RAW264.7", "experiment": "Antiinflammatory activity in 24 hrs NAC-pretreated mouse RAW264.7 cells assessed as inhibition of LPS-induced TNFalpha release at 10 uM preincubated for 1 hr followed by LPS stimulation and measured after 4 hrs by ELISA relative to control", "type": "functional", "settings": "time 5 hrs"}}, "note": "Active and inactive are the calls of the source. The rule behind the calls is not given here.", "data": [{"smiles": "C=C1CC[C@@H]2[C@](C)(CO)[C@H](O)CC[C@@]2(C)[C@@H]1C/C=C/C(C)=O", "values": [{"measurement": "Stabilty", "setting": "[1]", "value": "Stable"}, {"measurement": "inhibition", "setting": "RAW264.7 [2]", "value": "Active"}, {"measurement": "Activity", "setting": "RAW264.7 [3]", "value": "Toxic"}, {"measurement": "inhibition", "setting": "RAW264.7 [4]", "value": "Active"}, {"measurement": "inhibition", "setting": "RAW-Blue [5]", "value": "Active"}, {"measurement": "inhibition", "setting": "RAW-Blue [6]", "value": "Active"}, {"measurement": "Activity", "setting": "RAW-Blue [7]", "value": "inactive"}, {"measurement": "Activity", "setting": "RAW-Blue [8]", "value": "inactive"}, {"measurement": "Drug metabolism", "setting": "[9]", "value": "Metabolite_Notdetected"}, {"measurement": "K", "setting": "[10]", "value": "2.11e-05", "unit": "M⁻¹ s⁻¹"}, {"measurement": "t1/2", "setting": "[11]", "value": 6.47, "unit": "h"}, {"measurement": "inhibition", "setting": "[12]", "value": "Dose-dependent effect"}, {"measurement": "Activity", "setting": "[13]", "value": "Non-Toxic"}, {"measurement": "inhibition", "setting": "[14]", "value": "Active"}, {"measurement": "inhibition", "setting": "[15]", "value": "Dose-dependent effect"}, {"measurement": "Activity", "setting": "[16]", "value": "Active"}, {"measurement": "CC50 at 24 h", "setting": "[17]", "value": 30.1, "unit": "µM"}, {"measurement": "CC50 at 24 h", "setting": "[18]", "value": 67, "unit": "µM"}, {"measurement": "Activity", "setting": "Mus musculus [19]", "value": ">30", "unit": "%"}, {"measurement": "Activity", "setting": "Mus musculus [20]", "value": ">30", "unit": "%"}, {"measurement": "Activity", "setting": "Mus musculus [21]", "value": "Dose-dependent effect"}, {"measurement": "Activity", "setting": "Mus musculus [22]", "value": "Dose-dependent effect"}, {"measurement": "Activity", "setting": "RAW264.7 [23]", "value": "inactive"}, {"measurement": "Activity", "setting": "RAW264.7 [24]", "value": "inactive"}, {"measurement": "inhibition", "setting": "[25]", "value": "Active"}, {"measurement": "inhibition", "setting": "[26]", "value": "Active"}, {"measurement": "inhibition at 10 µM", "setting": "RAW264.7 [27]", "value": 12, "unit": "%"}, {"measurement": "inhibition at 10 µM", "setting": "RAW264.7 [28]", "value": 23, "unit": "%"}, {"measurement": "inhibition at 10 µM", "setting": "RAW264.7 [29]", "value": 51, "unit": "%"}]}]}
